# Measurements as given in paper PMC7265341, “Quantifying CDK inhibitor selectivity in live cells” (Nature Communications, 2020).
# Read-outs that look alike come from different tables or passages of the source.
# Assays:
# CDK19/Cyclin C = CDK19/Cyclin C (Homo sapiens, UniProt Q9BWU1); experiment: NanoBRET live-cell target engagement, NanoLuc-CDK19/Cyclin C in HEK-293; settings: CDK19/C
# CDK17/Cyclin Y = CDK17/Cyclin Y (Homo sapiens, UniProt Q00537); experiment: NanoBRET live-cell target engagement, CDK17-NanoLuc/Cyclin Y in HEK-293; format: binding; settings: CDK17/Y
# CDK15/Cyclin Y = CDK15/Cyclin Y (Homo sapiens, UniProt Q96Q40); experiment: NanoBRET live-cell target engagement, NanoLuc-CDK15/Cyclin Y in HEK-293; format: binding; settings: CDK15/Y
# CDK8/Cyclin C = CDK8/Cyclin C (Homo sapiens, UniProt P49336); experiment: NanoBRET live-cell target engagement, NanoLuc-CDK8/Cyclin C in HEK-293; format: binding; settings: CDK8/C
# CDK13/Cyclin K = CDK13/Cyclin K (Homo sapiens, UniProt Q14004); experiment: NanoBRET live-cell target engagement, CDK13-NanoLuc/Cyclin K in HEK-293; format: binding; settings: CDK13/K
# CDK11B/Cyclin L2 = CDK11B/Cyclin L2 (Homo sapiens, UniProt P21127); experiment: NanoBRET live-cell target engagement, CDK11B-NanoLuc/Cyclin L2 in HEK-293; format: binding; settings: CDK11b/L2
# CDK4/Cyclin D1 = CDK4/Cyclin D1 (Homo sapiens, UniProt P11802); experiment: NanoBRET live-cell target engagement, NanoLuc-CDK4/Cyclin D1 in HEK-293; format: binding; settings: CDK4/D1; for IC50: read-out: IC50
# CDK11A/Cyclin L2 = target: T1, CDK11A/Cyclin L2 (Homo sapiens, UniProt Q9UQ88); experiment: NanoBRET live-cell target engagement, CDK11A-NanoLuc/Cyclin L2 in HEK-293; format: binding; settings: CDK11a/L2
# T1 sequence (Q9UQ88 1-783): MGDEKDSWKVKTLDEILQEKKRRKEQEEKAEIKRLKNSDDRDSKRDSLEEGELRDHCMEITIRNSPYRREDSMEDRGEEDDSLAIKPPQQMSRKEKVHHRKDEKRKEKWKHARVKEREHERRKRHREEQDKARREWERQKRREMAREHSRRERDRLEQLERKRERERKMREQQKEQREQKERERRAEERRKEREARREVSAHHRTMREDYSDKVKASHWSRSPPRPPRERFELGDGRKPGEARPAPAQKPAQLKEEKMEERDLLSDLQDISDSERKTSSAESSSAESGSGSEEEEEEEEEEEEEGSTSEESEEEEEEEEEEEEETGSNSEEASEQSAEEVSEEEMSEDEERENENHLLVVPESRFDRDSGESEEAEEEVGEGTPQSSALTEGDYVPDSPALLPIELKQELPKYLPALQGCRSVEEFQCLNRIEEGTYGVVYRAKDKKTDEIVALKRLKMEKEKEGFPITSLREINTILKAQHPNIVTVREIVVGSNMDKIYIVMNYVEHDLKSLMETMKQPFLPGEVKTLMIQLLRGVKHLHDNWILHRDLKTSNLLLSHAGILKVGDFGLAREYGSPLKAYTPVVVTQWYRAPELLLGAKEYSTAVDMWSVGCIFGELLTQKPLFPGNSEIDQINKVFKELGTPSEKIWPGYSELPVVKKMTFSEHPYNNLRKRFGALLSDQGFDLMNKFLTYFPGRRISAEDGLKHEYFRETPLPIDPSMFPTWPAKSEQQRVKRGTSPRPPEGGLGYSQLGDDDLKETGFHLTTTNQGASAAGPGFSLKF
# CDK14/Cyclin Y = CDK14/Cyclin Y (Homo sapiens, UniProt O94921); experiment: NanoBRET live-cell target engagement, CDK14-NanoLuc/Cyclin Y in HEK-293; format: binding; settings: CDK14/Y
# CDK18/Cyclin Y = CDK18/Cyclin Y (Homo sapiens, UniProt Q07002); experiment: NanoBRET live-cell target engagement, CDK18-NanoLuc/Cyclin Y in HEK-293; format: binding; settings: CDK18/Y
# CDK6/Cyclin D1 = CDK6/Cyclin D1 (Homo sapiens, UniProt Q00534); experiment: NanoBRET live-cell target engagement, NanoLuc-CDK6/Cyclin D1 in HEK-293; format: binding; settings: CDK6/D1; for IC50: read-out: IC50
# CDK7 = CDK7 (Homo sapiens, UniProt P50613); experiment: NanoBRET live-cell target engagement, NanoLuc-CDK7 in HEK-293; format: binding; settings: CDK7
# CDK5/CDK5R1 = CDK5/CDK5R1 (Homo sapiens, UniProt Q00535); experiment: NanoBRET live-cell target engagement, CDK5-NanoLuc/CDK5R1 in HEK-293; format: binding; settings: CDK5/CDK5R1
# CDK1/Cyclin E1 = CDK1/Cyclin E1 (Homo sapiens, UniProt P06493); experiment: NanoBRET live-cell target engagement, CDK1-NanoLuc/Cyclin E1 in HEK-293; format: binding; settings: CDK1/E1
# CDK10/Cyclin L2 = CDK10/Cyclin L2 (Homo sapiens, UniProt Q15131); experiment: NanoBRET live-cell target engagement, CDK10-NanoLuc/Cyclin L2 in HEK-293; settings: CDK10/L2
# CDK12/Cyclin K = CDK12/Cyclin K (Homo sapiens, UniProt Q9NYV4); experiment: NanoBRET live-cell target engagement, CDK12-NanoLuc/Cyclin K in HEK-293; format: binding; settings: CDK12/K
# CDK9/Cyclin K = CDK9/Cyclin K (Homo sapiens, UniProt P50750); experiment: NanoBRET live-cell target engagement, NanoLuc-CDK9/Cyclin K in HEK-293; format: binding; settings: CDK9/K
# CDK16/Cyclin Y = CDK16/Cyclin Y (Homo sapiens, UniProt Q00536); experiment: NanoBRET live-cell target engagement, CDK16-NanoLuc/Cyclin Y in HEK-293; format: binding; settings: CDK16/Y
# CDK20/Cyclin H = CDK20/Cyclin H (Homo sapiens, UniProt Q8IZL9); experiment: NanoBRET live-cell target engagement, NanoLuc-CDK20/Cyclin H in HEK-293; format: binding; settings: CDK20/H
# CDK11B/Cyclin L2, sequence (P21127 1-782 isoform P21127-2): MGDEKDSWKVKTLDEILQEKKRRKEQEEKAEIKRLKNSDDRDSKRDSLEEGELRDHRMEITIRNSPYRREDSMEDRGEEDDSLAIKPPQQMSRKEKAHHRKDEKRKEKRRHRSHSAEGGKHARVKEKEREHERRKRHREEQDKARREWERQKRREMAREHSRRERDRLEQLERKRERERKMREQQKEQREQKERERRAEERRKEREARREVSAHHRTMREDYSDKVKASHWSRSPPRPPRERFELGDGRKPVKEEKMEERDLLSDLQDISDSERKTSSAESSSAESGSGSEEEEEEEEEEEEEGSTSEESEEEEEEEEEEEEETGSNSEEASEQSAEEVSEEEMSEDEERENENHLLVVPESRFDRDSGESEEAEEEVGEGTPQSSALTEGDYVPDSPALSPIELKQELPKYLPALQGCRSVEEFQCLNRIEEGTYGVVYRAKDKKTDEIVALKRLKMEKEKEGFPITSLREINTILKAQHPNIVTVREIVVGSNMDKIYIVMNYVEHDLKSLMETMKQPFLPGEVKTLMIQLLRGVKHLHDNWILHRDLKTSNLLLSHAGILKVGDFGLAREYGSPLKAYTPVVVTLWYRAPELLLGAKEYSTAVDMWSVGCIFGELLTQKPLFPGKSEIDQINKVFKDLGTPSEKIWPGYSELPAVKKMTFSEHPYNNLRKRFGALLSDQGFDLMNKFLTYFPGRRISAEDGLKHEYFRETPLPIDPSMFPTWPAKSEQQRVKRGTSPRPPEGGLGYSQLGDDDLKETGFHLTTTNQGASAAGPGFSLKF
# CDK14/Cyclin Y, sequence (O94921 whole entry): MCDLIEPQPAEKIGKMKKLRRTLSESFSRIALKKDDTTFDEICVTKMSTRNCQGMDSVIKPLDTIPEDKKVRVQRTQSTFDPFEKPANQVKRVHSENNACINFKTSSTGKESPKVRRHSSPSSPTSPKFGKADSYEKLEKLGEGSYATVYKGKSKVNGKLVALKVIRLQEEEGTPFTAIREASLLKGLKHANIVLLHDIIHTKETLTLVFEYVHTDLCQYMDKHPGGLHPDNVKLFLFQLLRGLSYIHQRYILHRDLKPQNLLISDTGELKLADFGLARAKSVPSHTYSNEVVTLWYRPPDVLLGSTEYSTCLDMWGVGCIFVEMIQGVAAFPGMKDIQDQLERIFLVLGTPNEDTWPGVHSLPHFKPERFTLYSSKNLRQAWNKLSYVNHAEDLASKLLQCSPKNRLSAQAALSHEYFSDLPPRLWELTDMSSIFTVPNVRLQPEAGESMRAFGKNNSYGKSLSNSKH
# CDK14/Cyclin Y, sequence (Q8ND76 whole entry partner): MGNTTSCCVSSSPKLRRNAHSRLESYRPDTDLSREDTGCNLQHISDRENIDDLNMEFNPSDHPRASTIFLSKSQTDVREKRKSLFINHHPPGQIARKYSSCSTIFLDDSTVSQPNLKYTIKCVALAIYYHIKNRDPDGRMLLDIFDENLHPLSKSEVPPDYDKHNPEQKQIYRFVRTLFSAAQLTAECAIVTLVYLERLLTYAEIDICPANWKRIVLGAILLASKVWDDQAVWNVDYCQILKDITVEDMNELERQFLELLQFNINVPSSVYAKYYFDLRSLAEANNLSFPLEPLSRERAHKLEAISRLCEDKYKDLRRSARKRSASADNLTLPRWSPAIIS
# CDK4/Cyclin D1, sequence (P11802 whole entry): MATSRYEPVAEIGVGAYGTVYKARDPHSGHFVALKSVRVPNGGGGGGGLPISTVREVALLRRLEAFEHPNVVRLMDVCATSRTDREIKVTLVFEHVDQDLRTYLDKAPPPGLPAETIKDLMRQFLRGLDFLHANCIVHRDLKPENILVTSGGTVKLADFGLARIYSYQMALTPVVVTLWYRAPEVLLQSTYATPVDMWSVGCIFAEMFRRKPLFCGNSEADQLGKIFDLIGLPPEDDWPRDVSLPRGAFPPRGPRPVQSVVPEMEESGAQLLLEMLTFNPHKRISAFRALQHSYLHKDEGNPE
# CDK4/Cyclin D1, sequence (P24385 whole entry partner): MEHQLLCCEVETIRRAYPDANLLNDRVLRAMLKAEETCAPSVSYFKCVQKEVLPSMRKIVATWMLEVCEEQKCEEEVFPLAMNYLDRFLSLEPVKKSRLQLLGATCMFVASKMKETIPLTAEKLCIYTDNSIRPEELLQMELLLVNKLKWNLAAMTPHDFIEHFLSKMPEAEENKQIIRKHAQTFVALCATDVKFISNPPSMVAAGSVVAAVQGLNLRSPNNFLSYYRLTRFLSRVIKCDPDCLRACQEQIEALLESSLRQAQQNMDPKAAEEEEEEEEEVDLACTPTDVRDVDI
# CDK17/Cyclin Y, sequence (Q00537 whole entry): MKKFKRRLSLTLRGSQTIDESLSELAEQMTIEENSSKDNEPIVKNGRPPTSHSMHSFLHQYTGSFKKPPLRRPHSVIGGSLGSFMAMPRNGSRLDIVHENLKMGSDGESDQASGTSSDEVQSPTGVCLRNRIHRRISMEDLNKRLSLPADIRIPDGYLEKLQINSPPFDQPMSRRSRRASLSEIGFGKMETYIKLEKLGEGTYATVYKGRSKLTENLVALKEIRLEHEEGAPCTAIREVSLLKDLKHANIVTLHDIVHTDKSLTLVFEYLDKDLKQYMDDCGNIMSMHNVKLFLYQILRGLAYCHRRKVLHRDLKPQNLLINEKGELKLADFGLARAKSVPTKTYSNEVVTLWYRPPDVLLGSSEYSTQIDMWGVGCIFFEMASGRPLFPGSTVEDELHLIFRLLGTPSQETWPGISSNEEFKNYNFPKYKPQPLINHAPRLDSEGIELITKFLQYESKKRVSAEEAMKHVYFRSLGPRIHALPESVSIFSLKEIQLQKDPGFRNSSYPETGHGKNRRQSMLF
# CDK17/Cyclin Y, sequence (Q8ND76 whole entry partner): as the sequence (Q8ND76 whole entry partner) above
# CDK13/Cyclin K, sequence (O75909 whole entry): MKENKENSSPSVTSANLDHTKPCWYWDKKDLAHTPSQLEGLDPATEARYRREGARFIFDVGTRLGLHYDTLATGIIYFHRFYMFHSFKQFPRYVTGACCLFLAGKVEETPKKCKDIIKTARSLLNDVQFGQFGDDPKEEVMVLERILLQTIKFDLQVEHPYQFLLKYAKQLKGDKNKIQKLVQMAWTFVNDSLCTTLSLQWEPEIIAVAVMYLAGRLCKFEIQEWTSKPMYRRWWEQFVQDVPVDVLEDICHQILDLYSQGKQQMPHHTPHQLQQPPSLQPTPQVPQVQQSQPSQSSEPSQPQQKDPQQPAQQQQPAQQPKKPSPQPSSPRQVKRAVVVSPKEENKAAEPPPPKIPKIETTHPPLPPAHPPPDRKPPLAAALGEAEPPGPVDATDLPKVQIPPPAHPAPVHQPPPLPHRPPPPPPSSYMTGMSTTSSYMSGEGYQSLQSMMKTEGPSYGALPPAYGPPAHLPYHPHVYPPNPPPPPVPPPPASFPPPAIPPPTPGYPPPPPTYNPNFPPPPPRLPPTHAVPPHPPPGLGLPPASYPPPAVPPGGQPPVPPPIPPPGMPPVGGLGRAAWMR
# CDK13/Cyclin K, sequence (Q14004 other isoform, or with tags, fused parts or gaps): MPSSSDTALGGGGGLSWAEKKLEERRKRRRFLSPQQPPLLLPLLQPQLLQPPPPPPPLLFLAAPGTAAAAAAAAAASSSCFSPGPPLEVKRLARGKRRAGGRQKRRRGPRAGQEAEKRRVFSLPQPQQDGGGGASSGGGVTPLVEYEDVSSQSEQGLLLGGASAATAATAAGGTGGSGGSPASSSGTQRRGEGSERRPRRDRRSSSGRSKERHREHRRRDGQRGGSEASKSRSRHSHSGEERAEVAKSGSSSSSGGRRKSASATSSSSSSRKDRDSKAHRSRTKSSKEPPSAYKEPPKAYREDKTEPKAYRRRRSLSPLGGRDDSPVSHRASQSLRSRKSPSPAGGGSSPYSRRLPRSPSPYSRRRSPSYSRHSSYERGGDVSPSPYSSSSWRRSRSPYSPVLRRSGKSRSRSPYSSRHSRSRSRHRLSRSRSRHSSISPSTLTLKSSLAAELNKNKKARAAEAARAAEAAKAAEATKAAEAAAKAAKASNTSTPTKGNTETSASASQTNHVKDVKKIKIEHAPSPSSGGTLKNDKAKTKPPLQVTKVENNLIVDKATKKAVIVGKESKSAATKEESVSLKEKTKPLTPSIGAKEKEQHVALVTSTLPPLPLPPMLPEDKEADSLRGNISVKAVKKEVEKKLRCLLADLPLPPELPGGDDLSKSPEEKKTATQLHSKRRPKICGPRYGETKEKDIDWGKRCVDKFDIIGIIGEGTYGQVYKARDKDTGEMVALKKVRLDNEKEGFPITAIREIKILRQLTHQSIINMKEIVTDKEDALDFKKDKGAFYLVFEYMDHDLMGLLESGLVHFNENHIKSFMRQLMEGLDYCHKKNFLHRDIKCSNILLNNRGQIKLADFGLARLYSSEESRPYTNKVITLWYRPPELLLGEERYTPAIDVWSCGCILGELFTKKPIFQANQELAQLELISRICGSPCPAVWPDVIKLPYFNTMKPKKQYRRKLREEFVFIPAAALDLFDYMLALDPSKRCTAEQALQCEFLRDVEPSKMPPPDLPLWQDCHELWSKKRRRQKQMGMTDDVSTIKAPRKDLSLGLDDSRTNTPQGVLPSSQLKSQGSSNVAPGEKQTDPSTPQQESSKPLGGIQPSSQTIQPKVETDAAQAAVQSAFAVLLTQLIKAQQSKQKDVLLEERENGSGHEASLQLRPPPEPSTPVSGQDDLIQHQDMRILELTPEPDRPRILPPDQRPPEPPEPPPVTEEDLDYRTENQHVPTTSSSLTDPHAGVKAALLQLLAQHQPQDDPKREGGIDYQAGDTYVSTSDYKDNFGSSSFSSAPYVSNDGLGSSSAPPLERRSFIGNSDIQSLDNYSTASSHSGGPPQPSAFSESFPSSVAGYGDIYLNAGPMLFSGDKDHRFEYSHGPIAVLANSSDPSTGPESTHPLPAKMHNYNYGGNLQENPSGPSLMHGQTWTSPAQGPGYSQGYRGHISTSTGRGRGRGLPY
compound,measurement,setting,value
CN1CCC(c2c(O)cc(O)c3c(=O)cc(-c4ccccc4Cl)oc23)C1CO (stereo not drawn) [P276-00],Inhibition at 10µM (%),CDK19/Cyclin C; average,72.1%
same,Inhibition at 10µM (%),CDK19/Cyclin C; experiment 1,76.3%
same,Inhibition at 10µM (%),CDK19/Cyclin C; experiment 2,67.9%
same,Inhibition at 10µM (%),CDK17/Cyclin Y; average,71.1%
same,Inhibition at 10µM (%),CDK17/Cyclin Y; experiment 1,75.5%
same,Inhibition at 10µM (%),CDK17/Cyclin Y; experiment 2,66.7%
same,Inhibition at 10µM (%),CDK15/Cyclin Y; average,28.5%
same,Inhibition at 10µM (%),CDK15/Cyclin Y; experiment 1,33.3%
same,Inhibition at 10µM (%),CDK15/Cyclin Y; experiment 2,23.7%
same,Inhibition at 10µM (%),CDK8/Cyclin C; average,79.0%
same,Inhibition at 10µM (%),CDK8/Cyclin C; experiment 1,82.7%
same,Inhibition at 10µM (%),CDK8/Cyclin C; experiment 2,75.3%
same,Inhibition at 10µM (%),CDK13/Cyclin K; average,11.2%
same,Inhibition at 10µM (%),CDK13/Cyclin K; experiment 1,12.5%
same,Inhibition at 10µM (%),CDK13/Cyclin K; experiment 2,9.8%
same,Inhibition at 10µM (%),CDK11B/Cyclin L2; average,58.5%
same,Inhibition at 10µM (%),CDK11B/Cyclin L2; experiment 1,56.7%
same,Inhibition at 10µM (%),CDK11B/Cyclin L2; experiment 2,60.4%
same,Inhibition at 10µM (%),CDK4/Cyclin D1; average,80.8%
same,IC50,CDK4/Cyclin D1; average (± SEM where n=3),400 ± 100 nM
same,Inhibition at 10µM (%),CDK4/Cyclin D1; experiment 1,79.0%
same,IC50,CDK4/Cyclin D1; experiment 1,690 nM
same,Inhibition at 10µM (%),CDK4/Cyclin D1; experiment 2,82.6%
same,IC50,CDK4/Cyclin D1; experiment 2,200 nM
same,IC50,CDK4/Cyclin D1; experiment 3,301 nM
same,Inhibition at 10µM (%),CDK11A/Cyclin L2; average,34.1%
same,Inhibition at 10µM (%),CDK11A/Cyclin L2; experiment 1,43.4%
same,Inhibition at 10µM (%),CDK11A/Cyclin L2; experiment 2,24.8%
same,Inhibition at 10µM (%),CDK14/Cyclin Y; average,50.9%
same,Inhibition at 10µM (%),CDK14/Cyclin Y; experiment 1,51.1%
same,Inhibition at 10µM (%),CDK14/Cyclin Y; experiment 2,50.7%
same,Inhibition at 10µM (%),CDK18/Cyclin Y; average,57.3%
same,Inhibition at 10µM (%),CDK18/Cyclin Y; experiment 1,55.4%
same,Inhibition at 10µM (%),CDK18/Cyclin Y; experiment 2,59.3%
same,Inhibition at 10µM (%),CDK6/Cyclin D1; average,83.0%
same,IC50,CDK6/Cyclin D1; average (± SEM where n=3),500 ± 100 nM
same,Inhibition at 10µM (%),CDK6/Cyclin D1; experiment 1,78.3%
same,IC50,CDK6/Cyclin D1; experiment 1,550 nM
same,Inhibition at 10µM (%),CDK6/Cyclin D1; experiment 2,87.7%
same,IC50,CDK6/Cyclin D1; experiment 2,220 nM
same,IC50,CDK6/Cyclin D1; experiment 3,659 nM
same,Inhibition at 10µM (%),CDK7; average,32.2%
same,Inhibition at 10µM (%),CDK7; experiment 1,38.1%
same,Inhibition at 10µM (%),CDK7; experiment 2,26.2%
same,Inhibition at 10µM (%),CDK5/CDK5R1; average,26.1%
same,Inhibition at 10µM (%),CDK5/CDK5R1; experiment 1,31.1%
same,Inhibition at 10µM (%),CDK5/CDK5R1; experiment 2,21.1%
same,Inhibition at 10µM (%),CDK1/Cyclin E1; average,41.0%
same,Inhibition at 10µM (%),CDK1/Cyclin E1; experiment 1,45.9%
same,Inhibition at 10µM (%),CDK1/Cyclin E1; experiment 2,36.2%
same,Inhibition at 10µM (%),CDK10/Cyclin L2; average,11.6%
same,Inhibition at 10µM (%),CDK10/Cyclin L2; experiment 1,10.1%
same,Inhibition at 10µM (%),CDK10/Cyclin L2; experiment 2,13.1%
same,Inhibition at 10µM (%),CDK12/Cyclin K; average,3.3%
same,Inhibition at 10µM (%),CDK12/Cyclin K; experiment 1,2.5%
same,Inhibition at 10µM (%),CDK12/Cyclin K; experiment 2,4.1%
same,Inhibition at 10µM (%),CDK9/Cyclin K; average,96.7%
same,Inhibition at 10µM (%),CDK9/Cyclin K; experiment 1,94.9%
same,Inhibition at 10µM (%),CDK9/Cyclin K; experiment 2,98.4%
same,Inhibition at 10µM (%),CDK16/Cyclin Y; experiment 1,61.8%
same,Inhibition at 10µM (%),CDK16/Cyclin Y; experiment 2,61.2%
same,Inhibition at 10µM (%),CDK20/Cyclin H; experiment 1,-0.6%
same,Inhibition at 10µM (%),CDK20/Cyclin H; experiment 2,-6.9%
